In patent US20190125735A1, “INHIBITION OF P38 MAPK FOR THE TREATMENT OF CANCER” (Board of Regents, The University of Texas System, priority 2015, published 2019):

Assays:
Format in all cases: cell-based, human
HMLER cells = assay: Sphere formation of HMLER cells expressing FOXC2 variants
Procedure: For this, phosphomimetic FOXC2(S367E) and non-phosphorylatable FOXC2(S367A) mutants were generated and their ability to bestow mesenchymal and stem-cell traits relative to wild-type FOXC2 (referred to as FOXC2) was evaluated.

[1] = tested on: HMLE-Snail-ER and HMLE-Twist-ER cells; assay: Sphere formation of 4-OHT-treated HMLE-Snail-ER and HMLE-Twist-ER cells; conditions: 4-OHT-treated cells, SB203580 exposure
Procedure: (§1) FIGS. 15A-15L: p38 inhibition compromises the acquisition and maintenance of EMT and stem cell properties in vitro. […] Cells were harvested and the corresponding lysates were analyzed by immunoblotting for FOXC2, E-cadherin and mesenchymal markers. β-actin was used as a loading control. […] Cells were harvested at the indicated timepoints and the corresponding lysates were analyzed by immunoblotting for FOXC2, E-cadherin and mesenchymal markers. β-actin was used as a loading control. […] One thousand cells were seeded per well in ultra-low attachment plates and cultured for 7-10 days. Spheres with a diameter greater than 75 μm were counted. The data are reported as the number of spheres formed/1000 seeded cells±SEM. […] Data are presented as mean±SEM. […] The corresponding lysates were analyzed by immunoblotting for FOXC2, E-cadherin and mesenchymal markers. β-actin was used as a loading control. (F) The sphere-forming efficiency of 4-OHT-treated HMLE-Twist-ER cells, transduced with control shRNA (shControl) or p38 shRNA (shp38), was determined. […] (H) The sphere-forming efficiency of the indicated cells was determined in the presence of vehicle or SB203580. […] (J) The relative wound closure by the indicated cells, treated with vehicle or SB203580, was measured by image analysis and represented in a graphical format. […] Degradation of FITC-gelatin was quantified by image analysis. n=150 cells/sample. […]

[2] = tested on: HMLE-Snail and HMLE-Twist cells; assay: Invadopodia formation, degradation of FITC-conjugated gelatin; conditions: within 16 h, vs vehicle-treated cells
Procedure: as §1

DU145 cells = assay: FACS CD44/CD24 in DU145 cells; conditions: DU145, 5 μM, 7 days
Procedure: Fluorescence-activated cell sorting (FACS) for PSAHi & PSA−/lo cells and CD44Hi & CD24Lo cells was performed as described previously (Hollier et al., 2013) using BD Influx sorter.

FOXC2 = FOXC2 protein levels by immunoblotting in mammary cell lines; conditions: series of cell lines, relative to vehicle, 24 h
Procedure: Immortalized human mammary epithelial (HMLE) cells expressing empty vector (pWZL), Snail, Twist, Goosecoid (GSC), or an activated form of TGFβ1, V12H-Ras-transformed HMLE (HMLER) and HMLER-FOXC2 cells were maintained as previously described (Elenbaas et al., 2001) For 4-hydroxy-tamoxifen (4-OHT) treatment, HMLE-Snail-ER or HMLE-Twist-ER cells were exposed to 20 nM 4-OHT for the indicated number of days. MCF7, MDA-MB-231 and SUM159 human breast cancer cells and the 4T1 mouse mammary carcinoma cells were cultured as described. Human non-tumorigenic MCF10A cells were cultured as described (Hollier et al., 2013), and treated with 2.5 ng/ml TGFβ1 for 3 days to elicit EMT.
Immunoblotting and immunofluorescence (Mani et al., 2008) were performed as previously described. Primary antibodies were as follows: β-actin (Sigma, St Louis, Mo., USA; A3853), mouse anti-human FOXC2 (Dr. Naoyuki Miura, Hamamatsu University School of Medicine, Japan), goat polyclonal anti-FOXC2 (Santa Cruz Biotechnology, Dallas, Tex., USA; sc-21397), p-p38 (Cell Signaling, Danvers, Mass., USA; 4511), p38 (Cell Signaling; 9211), E-cadherin (BD Biosciences, San Jose, Calif., USA; 61081), fibronectin (BD Biosciences; 610077), vimentin (Novus Biologicals, Littleton, Colo., USA; NB200-623), ZEB1 (Novus Biologicals; NBP1-05987), and HA (Covance, Princeton, N.J., USA; MMS-101P).

[3] = tested on: HMLE-Snail, HMLE-Twist, MDA-MB-231 and SUM159 cells; assay: Sphere formation of mesenchymal mammary cells; conditions: relative to vehicle-treated cells
Procedure: It was next ascertained whether p38 inhibition compromises the maintenance of the established EMT phenotype.
Quantification of invadopodia (Eckert et al., 2011), scratch/wound-healing assays (Sarkar et al., 2015) fluorescence-activated cell sorting (FACS), and sphere-formation assays (Mani et al., 2008) were conducted as described previously.

Structure (SMILES): C[S+]([O-])c1ccc(-c2nc(-c3ccc(F)cc3)c(-c3ccncc3)[nH]2)cc1 (stereo not shown) [SB203580, 4-(4-Fluorophenyl)-2-(4-methylsulfinylphenyl)-5-(4-pyridyl) 1H-imidazole]
- Sphere-forming capacity (HMLER cells; HMLER-FOXC2(S367E) cells): retained the ability to form spheres even in the presence of SB203580
- Sphere-forming capacity (HMLER cells; HMLER-FOXC2 cells): reduced
- Sphere-forming potential [1]: failed to acquire sphere-forming potential
- Degradation of underlying extracellular matrix (FITC-gelatin) [2]: failed to do so to the same degree
- CD44^hi/CD24^lo fraction (DU145 cells): significant reduction
- FOXC2 protein levels (FOXC2): consistent and striking decrease in FOXC2 protein levels
- Sphere-formation [3]: substantially reduced sphere-formation
